Assay results: patent US9746484B2, “Binding partners specific for vitamin D epimers in vitamin D assays” (Siemens Healthcare Diagnostics Inc., priority 2014, dated 2017)
“And” between values parts separate entries of the source, which are not always exact repeats. Identical values can stand only once.

System: biotinylated monoclonal anti-25OH vitamin D antibody
Assay: LOCI 25(OH)D immunoassay, 3-epimer cross-reactivity without blocking antibody
Assay type: binding, sheep
Conditions: no anti-3-epimer antibody; for Avg. Cross-reactivity, No anti-3-epimer VD Ab Added: average of ten patient sera spiked with 100 ng/mL 3-epimer vitamin D3
Experimental: The 25OH Vitamin D (25(OH)D) immunoassay format employed was a homogeneous competitive chemiluminescent immunoassay based on LOCI® assay technology. The assay was performed on the Siemens Dimension® EXL automated integrated clinical chemistry system (Siemens Healthcare Diagnostics Inc., Deerfield, Ill.). The assay measured the total concentration of 25(OH)D2 and/or 25(OH)D3 in serum and plasma samples. The LOCI® assay reagents included a releasing reagent, two synthetic bead reagents and a biotinylated monoclonal anti-25OH vitamin D antibody reagent. The first bead reagent (designated “Sensibeads”) was coated with streptavidin and contained a photosensitive dye. The second bead reagent (designated “Chemibeads”) was coated with a 25(OH)D3 analog and contained chemiluminescent dye. Sample was incubated with the releasing reagent to release 25(OH)D molecules including 3-epimeric compounds from vitamin D binding proteins. The reaction mixture was then incubated with biotinylated antibody to form a 25(OH)D-biotinylated antibody complex. […] Chemibeads were added to bind excess free biotinylated antibody. Sensibeads were then added to bind to the biotin portion of the biotinylated antibody. Aggregates of Chemibead-analog/antibody-biotin/streptavidin-Sensibeads were formed as a result. Illumination of the reaction mixture with light at 680 nm generates singlet oxygen from Sensibeads, which diffused into the Chemibeads and triggered a chemiluminescent reaction. The resulting chemiluminescent signal was measured at 612 nm and is inversely proportional to the concentration of total 25(OH)D in the sample.
The effect of adding anti-3-epimer-VD antibody 8F10.1 (anti-3-epimer VD Ab) on the 3-epimer cross-reactivity for the assay is shown in Table 1. […] The 3-epimer cross-reactivity was calculated by the difference between 25(OH)D2 or 25(OH)D3 values with and without the spiked 3-epimer compound divided by the amount of added 3-epimer compound.

With `C=C1CC[C@@H](O)C/C1=C/C=C1\CCC[C@]2(C)[C@@H]([C@H](C)CCCC(C)(C)O)CC[C@@H]12` [3-epimer D3, 3-epi-25-hydroxyvitamin D3] the “Avg. Cross-reactivity, No anti-3-epimer VD Ab Added” value was 13.7%, the “Avg. Cross-reactivity, No anti-3-epimer VD Ab Added” value (listed as 3-epimer vitamin D3 compound) was 13.7% and the “3-epimer Cross-Reactivity, No anti-3-epimer VD Ab Added” value (individual patient sera (Sample ID 1-10) spiked with 100 ng/mL 3-epimer vitamin D3) was 17.9% (2×) and 11.9% and 12.6% and 16.1% and 10.2% and 9.1% and 10.5% and 15.3% and 15.5%.
